Measured values: US20120077836A1, “METHODS OF ADMINISTERING (4AR,10AR)-1-N-PROPYL-1,2,3,4,4A,5,10,10A-OCTAHYDROBENZO [G] QUINOLINE-6,7-DIOL AND RELATED COMPOUNDS ACROSS THE ORAL MUCOSA, THE NASAL MUCOSA OR THE SKIN AND PHARMACEUTICAL COMPOSITIONS THEREOF” (priority 2009, published 2012)
Counter-ions that a name gives are not always drawn. Like-named read-outs stand apart in the source and are kept apart here.

Key:
[1] = molecular target: T1, human recombinant D1 receptor (Homo sapiens, UniProt P21728); test: D1 cAMP assay; assay type: cell-based
T1 construct: expressed in transfected cells
T1 sequence (P21728 whole entry): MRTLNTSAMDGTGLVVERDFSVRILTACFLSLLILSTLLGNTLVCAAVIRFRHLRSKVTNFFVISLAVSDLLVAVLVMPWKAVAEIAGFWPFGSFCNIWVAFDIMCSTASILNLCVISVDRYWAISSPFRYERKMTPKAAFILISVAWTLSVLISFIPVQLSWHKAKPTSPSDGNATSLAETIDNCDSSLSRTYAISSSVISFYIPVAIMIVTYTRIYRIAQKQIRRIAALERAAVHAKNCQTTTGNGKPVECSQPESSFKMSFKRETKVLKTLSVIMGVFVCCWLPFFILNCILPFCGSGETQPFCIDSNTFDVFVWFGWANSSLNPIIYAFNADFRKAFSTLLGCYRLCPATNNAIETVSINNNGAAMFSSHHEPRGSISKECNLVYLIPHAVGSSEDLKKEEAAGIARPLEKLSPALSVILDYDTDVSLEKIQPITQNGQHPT
Experimental: The ability of the compounds to either stimulate or inhibit the D1 receptor mediated cAMP formation in CHO cells stably expressing the human recombinant D1 receptor was measured as follows. Cells were seeded in 96-well plates at a concentration of 11000 cells/well 3 days prior to the experiment.

[2] = molecular target: T2, hD5-transfected CHO-Ga16 cells (Homo sapiens, UniProt P21918); test: D5 assay, intracellular Ca2+ release (FLIPR); assay type: cell-based
T2 construct: expressed in transfected cells; host or cells: CHO-Ga16 cells
T2 sequence (P21918 whole entry): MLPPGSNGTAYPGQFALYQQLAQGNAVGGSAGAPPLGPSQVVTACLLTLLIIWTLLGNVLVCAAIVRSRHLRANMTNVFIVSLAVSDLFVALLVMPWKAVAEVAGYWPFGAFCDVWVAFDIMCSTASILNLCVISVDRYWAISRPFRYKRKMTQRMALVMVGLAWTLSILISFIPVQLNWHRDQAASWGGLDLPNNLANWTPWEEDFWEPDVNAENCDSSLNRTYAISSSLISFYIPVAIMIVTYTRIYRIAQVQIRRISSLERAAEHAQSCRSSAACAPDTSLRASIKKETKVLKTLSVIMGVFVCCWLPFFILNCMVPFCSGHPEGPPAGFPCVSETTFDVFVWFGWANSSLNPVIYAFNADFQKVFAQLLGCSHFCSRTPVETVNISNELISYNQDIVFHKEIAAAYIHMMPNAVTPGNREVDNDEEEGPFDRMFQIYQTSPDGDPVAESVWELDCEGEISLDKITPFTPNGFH

[3] = test system: rats with unilateral 6-OHDA lesions; test: D1/D2 dissection, rotation response in rats with unilateral 6-OHDA lesions; assay type: in vivo, rat
Text: Rats weighing 200-250 g were subjected to unilateral 6-OHDA lesions. […] Nemonapride is a D2 antagonist that blocks the D2 receptors, therefore any observed rotations would be dependent upon activity at the D1 receptors.

[4] = test system: MPTP/AMPT mouse model; test: Superiority model, hypomotility in the MPTP/AMPT mouse model; assay type: in vivo; conditions: for activity count (0.5-1.5 h): AMPT 250 mg/kg SC
Experimental: MPTP (1-methyl-4-phenyl-1,2,3,6-tetrahydropyridine) is a neurotoxin that causes permanent symptoms of Parkinson's disease by killing certain neurons in the substantia nigra of the brain. It is used to study the disease in monkeys and mice. […] Various compounds (all dosed subcutaneously) were tested for their ability to reverse the motility deficits produced in this model.

[5] = test system: MPTP treated marmosets; test: Anti-parkinsonian effects in MPTP-treated common marmosets; assay type: in vivo, common marmoset; parameters: disability score (120 min) / disability score (180 min) / disability score (240 min) / disability score (300 min) / disability score (360 min) / disability score (420 min) / disability score (60 min): scale not given here
Experimental: The experiments were conducted using 6 MPTP treated marmosets (2.0 mg/kg daily for up to 5 consecutive days dissolved in sterile 0.9% saline solution). All the animals had previously been treated with L-DOPA (12.5 mg/kg p.o., plus carbidopa 12.5 mg/kg p.o.) administered daily for up to 30 days in order to induce dyskinesia. […] Domperidone was administered 60 min before any of the test compounds. Domperidone is an antidopaminergic drug that suppresses nausea and vomiting. Locomotor activity was assessed using test cages that are comprised of 8 photo-electric switches comprised of 8 infra-red beams which are strategically placed in the cage and interruption of a beam is recorded as one count. […] The assessment of motor disability was performed by a trained observer blinded to the treatment.
The dose chosen for this challenge is at the top of the dose response curve for this drug.

[6] = test system: reserpinesed rats; test: Reversal of reserpine-induced hypomotility in rats; assay type: in vivo, rat; conditions: for activity count: reserpine 5 mg/kg SC 23-24 h before, over 3 hours
Experimental: Rats weighing ca. 200 g were treated with reserpine (5 mg/kg subcutaneously as a solution in 20% aqueous solutol for which pH was adjusted to 4 with methanesulfonic acid). […] Group 1: treated with 20% ethanol in 0.7% aqueous sodium chloride subcutaneously.

[7] = test system: unilaterally lesioned 6-OHDA rats; assay type: in vivo, rat
Experimental: Animals were generated as described under example 7. Four groups of animals were dosed with various doses of compound 10 (group 1, 1 microg/kg; group 2, 10 microg/kg; group 3, 25 microg/kg; group 4, 50 microg/kg). In all cases, compound 10 was administered in one of the nostrils in a volume of 20 microL of a solution of the appropriate concentration in 20% ethanol in 0.7% aqueous sodium chloride containing 0.02% ascorbic acid. The drug solution was applied to one of the nostrils and the nose was gently massaged to ensure distribution of the administered solution over the nasal mucosa. The degree of rotation behaviour of the animals was recorded over the next 3 hours.

[8] = test system: rats with unilateral 6-OHDA lesions; test: Rotation response in 6-OHDA rats after transdermal delivery; assay type: in vivo, rat
Experimental: We have used rats with unilateral 6-OHDA lesions to assess compound 10 for its ability to induce rotation after transdermal administration [for details on the model, see the description under example 7]. Three groups of six animals were treated with different doses of compound 10 administered transdermally. Compound 10 (24 mg) was suspended in a mixture of 0.02% ascorbic acid and 20% ethanol in saline (9 mL); the resulting suspension was diluted with dimethyl sulfoxide (0.45 mL). The appropriate amount of this formulation was applied to the ears of the animals. The ears were rubbed gently before the rotation response of the animals was assessed over 3 h. […]

[9] = test system: rats with unilateral 6-OHDA lesions; test: Dyskinesia model with naive 6-OHDA rats (AIMS)

**Q.** CCCN1CCC[C@@H]2Cc3c(ccc(O)c3O)C[C@H]21 [compound 10, (4aR,10aR)-1-n-Propyl-1,2,3,4,4a,5,10,10a-octahydro-benzo[g]quinoline-6,7-diol hydrobromide] was tested. Which EC50 [1] did it give?
**A.** 15.5 nM

**Q.** And the Emax ([1]; read-out: intrinsic activity (efficacy))?
**A.** 100%

**Q.** What about the EC50 [2] of the same molecule?
**A.** 0.06 nM

**Q.** And the Emax ([2]; CHO-Ga16, read-out: intrinsic activity (efficacy))?
**A.** 95%

**Q.** What about the “MED (minimum effective dose to induce rotation)” value ([3]; dosed SC, 6-OHDA rats) of the same molecule?
**A.** 0.65 µg/kg

**Q.** And the “MEDNemonapride (MED to overcome Nemonapride block)” value ([3]; dosed SC, 6-OHDA rats, * = rotations could not be blocked by SCH23390)?
**A.** 1.3 µg/kg

**Q.** And the “mixed D1/D2 ratio” value ([3]; subcutaneous, 6-OHDA rat rotation model)?
**A.** about 2

**Q.** And the “reversal of motility deficits” value ([4]; MPTP/AMPT mice, all dosed subcutaneously)?
**A.** restored locomotion in the mice in a dose-dependent manner

**Q.** And the “activity count (0.5-1.5 h)” value ([4]; Table 4c, 0.003 mg/kg SC, controls: vehicle 405, AMPT/vehicle 12)?
**A.** 8

**Q.** And the “activity count (0.5-1.5 h)” value ([4]; Table 4c, 0.01 mg/kg SC)?
**A.** 228

**Q.** What about the “activity count (0.5-1.5 h)” value ([4]; Table 4c, 0.03 mg/kg SC) of the same molecule?
**A.** 440

**Q.** And the “activity count (0.5-1.5 h)” value ([4]; Table 4e direct comparison, apomorphine 1 mg/kg SC, pramipexole 1 mg/kg SC, compound 10 0.030 mg/kg SC, controls: vehicle 509, AMPT/vehicle 2)?
**A.** 690

**Q.** What about the “disability score (60 min)” value ([5]; 0.001 mg/kg SC) of the same molecule?
**A.** 14.3

**Q.** And the “disability score (120 min)” value ([5]; 0.001 mg/kg SC)?
**A.** 2.3

**Q.** And the “disability score (180 min)” value ([5]; 0.001 mg/kg SC)?
**A.** 2.5

**Q.** What about the “disability score (240 min)” value ([5]; 0.001 mg/kg SC) of the same molecule?
**A.** 3.0

**Q.** And the “disability score (300 min)” value ([5]; 0.001 mg/kg SC)?
**A.** 2.5

**Q.** And the “disability score (360 min)” value ([5]; 0.001 mg/kg SC)?
**A.** 6.5

**Q.** What about the “disability score (420 min)” value ([5]; 0.001 mg/kg SC) of the same molecule?
**A.** 8.5

**Q.** What about the “disability score (60 min)” value ([5]; 0.01 mg/kg SC) of the same molecule?
**A.** 10.0

**Q.** And the “disability score (120 min)” value ([5]; 0.01 mg/kg SC)?
**A.** 2.2

**Q.** And the “disability score (180 min)” value ([5]; 0.01 mg/kg SC)?
**A.** 2.0

**Q.** And the “disability score (240 min)” value ([5]; 0.01 mg/kg SC)?
**A.** 2.2

**Q.** What about the “disability score (300 min)” value ([5]; 0.01 mg/kg SC) of the same molecule?
**A.** 2.7

**Q.** And the “disability score (360 min)” value ([5]; 0.01 mg/kg SC)?
**A.** 2.3

**Q.** And the “disability score (420 min)” value ([5]; 0.01 mg/kg SC)?
**A.** 2.7

**Q.** And the “effect on locomotor activity and motor disability” value ([5]; L-DOPA 12.5 mg/kg p.o., compound 10 0.001 or 0.01 mg/kg SC)?
**A.** dose-related increase in locomotor activity and reversal of motor disability

**Q.** What about the “reversal of reserpine-induced hypomotility” value ([6]; administered buccally) of the same molecule?
**A.** reversed the hypomotility

**Q.** And the “reversal of reserpine-induced hypomotility” value ([6]; administered subcutaneously)?
**A.** reversed the reserpine-induced hypomotility

**Q.** What about the activity count ([6]; 0.05 mg/kg buccally) of the same molecule?
**A.** 378

**Q.** And the activity count ([6]; 0.10 mg/kg buccally)?
**A.** 533

**Q.** And the activity count ([6]; apomorphine 1 mg/kg SC, compound 10 0.01 mg/kg SC, controls: vehicle 486, reserpine/vehicle 17)?
**A.** 308

**Q.** What about the “mean number of rotations (0-3 h)” value ([7]; group 1, intranasal 1 microg/kg) of the same molecule?
**A.** 401

**Q.** And the “mean number of rotations (0-3 h)” value ([7]; group 2, intranasal 10 microg/kg)?
**A.** 691

**Q.** What about the “mean number of rotations (0-3 h)” value ([7]; group 3, intranasal 25 microg/kg) of the same molecule?
**A.** 1286

**Q.** And the “mean number of rotations (0-3 h)” value ([7]; group 4, intranasal 50 microg/kg)?
**A.** 2122

**Q.** What about the “mean number of rotations over 3 h” value ([8]; 0.127 mg/kg transdermally (ears)) of the same molecule?
**A.** 482

**Q.** What about the “mean number of rotations over 3 h” value ([8]; 0.254 mg/kg transdermally (ears)) of the same molecule?
**A.** 837

**Q.** And the “mean number of rotations over 3 h” value ([8]; 0.381 mg/kg transdermally (ears))?
**A.** 1448

**Q.** And the “induction of circling behavior” value ([8]; transdermal delivery, three dose groups)?
**A.** induced circling behavior in all three groups

**Q.** What about the “mean AIM score (day 19)” value ([9]; group 1: compound 10 0.0013 mg/kg SC days 1-14, then compound 10 0.0013 mg/kg SC days 15-19) of the same molecule?
**A.** 25

**Q.** And the “mean AIM score (day 19)” value ([9]; group 2: L-DOPA/Benserazide 6/15 mg/kg SC days 1-14, then compound 10 0.0013 mg/kg SC days 15-19)?
**A.** 18

**Q.** What about the “mean AIM score (day 19)” value ([9]; group 3: apomorphine 1 mg/kg SC days 1-14, then compound 10 0.0013 mg/kg SC days 15-19) of the same molecule?
**A.** 39

**Q.** What about the “dyskinesia score (AIMS)” value ([9]; once daily SC, scored days 1-12) of the same molecule?
**A.** about 30
